Experimental data as given in PubChem BioAssay (NCI).
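Each compound was tested at five concentrations against cells in 96-well plates for 48 hours. GI50 marks 50% less growth. TGI is the concentration that stops growth completely.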

Columns and labels:
Assay in all cases: inhibition of tumour cell growth, NCI panel, 48 h
[1] = system: MCF7 breast
[2] = system: OVCAR-4 ovarian
[3] = system: HCC-2998 colon
[4] = system: HS 578T breast
[5] = system: IGROV1 ovarian
[6] = system: OVCAR-5 ovarian
[7] = system: HCT-15 colon
[8] = system: SK-MEL-28 melanoma
[9] = system: HOP-92 NSCLC
[10] = system: NCI-H522 lung
[11] = system: SK-OV-3 ovarian
[12] = system: KM12 colon
[13] = system: SNB-75 CNS
[14] = system: NCI-H226 lung
[15] = system: RPMI-8226 leukemia
[16] = system: SF-539 CNS
[17] = system: MOLT-4 leukemia
[18] = system: DU-145 prostate
[19] = system: HOP-62 NSCLC
[20] = system: LOX IMVI melanoma
[21] = system: UACC-62 melanoma
[22] = system: HL-60(TB) leukemia
[23] = system: NCI/ADR-RES ovarian
[24] = system: 786-0 renal
[25] = system: U251 CNS
[26] = system: BT-549 breast
[27] = system: SW-620 colon
[28] = system: SN12C renal
[29] = system: T-47D breast
[30] = system: RXF 393 renal
[31] = system: EKVX NSCLC
[32] = system: UO-31 renal
[33] = system: NCI-H23 lung
[34] = system: SK-MEL-5 melanoma
[35] = system: SNB-19 CNS
[36] = system: CAKI-1 renal
[37] = system: UACC-257 melanoma
[38] = system: SF-295 CNS
[39] = system: A549 NSCLC
[40] = system: SR leukemia
[41] = system: HT29 colon
[42] = system: HCT-116 colon
[43] = system: OVCAR-8 ovarian
[44] = system: K-562 leukemia
[45] = system: SK-MEL-2 melanoma
[46] = system: NCI-H460 lung
[47] = system: MDA-MB-435
[48] = system: A498 renal
[49] = system: M14 melanoma
[50] = system: ACHN renal
[51] = system: MDA-MB-231 breast
[52] = system: COLO 205 colon
[53] = system: PC-3 prostate
[54] = system: TK-10 renal
[55] = system: CCRF-CEM leukemia
[56] = system: SF-268 CNS
[57] = system: MALME-3M melanoma

SMILES: NC(=S)n1c(=O)n(-c2cccc(C(F)(F)F)c2)c(=O)c2cc(-c3ccc(F)cc3F)ccc21
- GI50 [1]: 1700 nM
- TGI [1]: 8180 nM
- GI50 [2]: 2390 nM
- TGI [2]: 22500 nM
- GI50 [3]: 2960 nM
- TGI [3]: 9270 nM
- GI50 [4]: 1110 nM
- TGI [4]: 4450 nM
- GI50 [5]: 1990 nM
- TGI [5]: 13000 nM
- GI50 [6]: 3540 nM
- TGI [6]: 17500 nM
- GI50 [7]: 769 nM
- TGI [7]: 2690 nM
- GI50 [8]: 1430 nM
- TGI [8]: 6240 nM
- GI50 [9]: 191 nM
- TGI [9]: 741 nM
- GI50 [10]: 428 nM
- TGI [10]: 2870 nM
- GI50 [11]: 1210 nM
- TGI [11]: 3600 nM
- GI50 [12]: 2260 nM
- TGI [12]: 6210 nM
- GI50 [13]: 1500 nM
- TGI [13]: 5170 nM
- GI50 [14]: 1420 nM
- TGI [14]: 3890 nM
- GI50 [15]: 575 nM
- TGI [15]: 3110 nM
- GI50 [16]: 1920 nM
- TGI [16]: 8790 nM
- GI50 [17]: 1660 nM
- TGI [17]: 4840 nM
- GI50 [18]: 2740 nM
- TGI [18]: 13700 nM
- GI50 [19]: 1830 nM
- TGI [19]: 4440 nM
- GI50 [20]: 1540 nM
- TGI [20]: 3170 nM
- GI50 [21]: 379 nM
- TGI [21]: 1610 nM
- GI50 [22]: 1600 nM
- TGI [22]: 7260 nM
- GI50 [23]: 1970 nM
- TGI [23]: 9410 nM
- GI50 [24]: 2000 nM
- TGI [24]: 4390 nM
- GI50 [25]: 1740 nM
- TGI [25]: 9310 nM
- GI50 [26]: 1180 nM
- TGI [26]: 2620 nM
- GI50 [27]: 1600 nM
- TGI [27]: 4200 nM
- GI50 [28]: 1260 nM
- TGI [28]: 6300 nM
- GI50 [29]: 1540 nM
- TGI [29]: 6090 nM
- GI50 [30]: 1220 nM
- TGI [30]: 3090 nM
- GI50 [31]: 2390 nM
- TGI [31]: 7950 nM
- GI50 [32]: 2300 nM
- TGI [32]: 8580 nM
- GI50 [33]: 1180 nM
- TGI [33]: 5100 nM
- GI50 [34]: 333 nM
- TGI [34]: 1140 nM
- GI50 [35]: 1290 nM
- TGI [35]: 22900 nM
- GI50 [36]: 1610 nM
- TGI [36]: 5860 nM
- GI50 [37]: 1070 nM
- TGI [37]: 4000 nM
- GI50 [38]: 1750 nM
- TGI [38]: 3620 nM
- GI50 [39]: 2730 nM
- TGI [39]: 11300 nM
- GI50 [40]: 984 nM
- TGI [40]: 5150 nM
- GI50 [41]: 3340 nM
- TGI [41]: 11900 nM
- GI50 [42]: 953 nM
- TGI [42]: 2300 nM
- GI50 [43]: 1290 nM
- TGI [43]: 6480 nM
- GI50 [44]: 725 nM
- TGI [44]: 14100 nM
- GI50 [45]: 590 nM
- TGI [45]: 2350 nM
- GI50 [46]: 763 nM
- TGI [46]: 5410 nM
- GI50 [47]: 1560 nM
- TGI [47]: 5460 nM
- GI50 [48]: 341 nM
- TGI [48]: 1220 nM
- GI50 [49]: 1600 nM
- TGI [49]: 4230 nM
- GI50 [50]: 2270 nM
- TGI [50]: 10500 nM
- GI50 [51]: 1820 nM
- TGI [51]: 5950 nM
- GI50 [52]: 1760 nM
- TGI [52]: 3360 nM
- GI50 [53]: 1050 nM
- TGI [53]: 4110 nM
- GI50 [54]: 4050 nM
- TGI [54]: 8470 nM
- GI50 [55]: 2270 nM
- TGI [55]: 11500 nM
- GI50 [56]: 2000 nM
- TGI [56]: 11300 nM
- GI50 [57]: 1510 nM
- TGI [57]: 4950 nM
